#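 Assay format: 96-well plates, 48-hour exposure. The concentration for 50% growth inhibition is given as GI50.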 Active and inactive are the calls of the source. Cut-off read from the data, not from the text of the source: active = GI50 up to about 1.1 µM and inactive = higher.
# Columns and labels:
# Experiment in all cases: NCI anticancer screen, dose series, 48 h
# [1] = test system: A498
# [2] = test system: Malme-3M
# [3] = test system: OVCAR-8
# [4] = test system: NCI-H522
# [5] = test system: HT-29
# [6] = test system: OVCAR-4
# [7] = test system: SW-620
# [8] = test system: TK-10
# [9] = test system: SN12C
# [10] = test system: SF-268
# [11] = test system: PC-3
# [12] = test system: CCRF-CEM
# [13] = test system: M14
# [14] = test system: SNB-75
# [15] = test system: U-251
# [16] = test system: IGROV-1
# [17] = test system: NCI-H23
# [18] = test system: OVCAR-3
# [19] = test system: K562
# [20] = test system: SF-295
SMILES,GI50 [1],GI50 [2],GI50 [3],GI50 [4],GI50 [5],GI50 [6],GI50 [7],GI50 [8],GI50 [9],GI50 [10],GI50 [11],GI50 [12],GI50 [13],GI50 [14],GI50 [15],GI50 [16],GI50 [17],GI50 [18],GI50 [19],GI50 [20]
CN1CCC2(CC1)C(=O)N(N1CCCCCC1)C(=O)N2c1ccccc1,34.7 µM (inactive),> 100 µM (inactive),78 µM (inactive),57.7 µM (inactive),60.5 µM (inactive),> 100 µM (inactive),> 100 µM (inactive),> 100 µM (inactive),> 100 µM (inactive),> 100 µM (inactive),77.8 µM (inactive),> 100 µM (inactive),> 100 µM (inactive),31.9 µM (inactive),> 100 µM (inactive),> 100 µM (inactive),> 100 µM (inactive),> 100 µM (inactive),> 100 µM (inactive),> 100 µM (inactive)
CCCNC1=Nc2ccccc2N(Cc2ccccc2)CC1,11.4 µM (inactive),10.3 µM (inactive),14.9 µM (inactive),13.9 µM (inactive),19.5 µM (inactive),35 µM (inactive),23.7 µM (inactive),27.8 µM (inactive),31.5 µM (inactive),15.7 µM (inactive),19.3 µM (inactive),21 µM (inactive),14.3 µM (inactive),5.62 µM (inactive),18 µM (inactive),4.54 µM (inactive),16.5 µM (inactive),32.4 µM (inactive),5.57 µM (inactive),24.9 µM (inactive)
CC(C)c1cc2c(c(O)c1O)[C@@]1(C)CCCC(C)(C)C1=C(O)C2,1.12 µM (active),1.26 µM (inactive),1.54 µM (inactive),1.15 µM (inactive),6.75 µM (inactive),1.29 µM (inactive),1.46 µM (inactive),1.91 µM (inactive),20.9 µM (inactive),1.5 µM (inactive),1.19 µM (inactive),0.822 µM (active),2.36 µM (inactive),0.984 µM (active),1.51 µM (inactive),1.04 µM (active),1.54 µM (inactive),1.38 µM (inactive),1.6 µM (inactive),1.53 µM (inactive)
Oc1cccc2c(Cl)ccnc12,15.8 µM (inactive),6.97 µM (inactive),0.372 µM (active),0.741 µM (active),9.51 µM (inactive),1.7 µM (inactive),0.778 µM (active),44.3 µM (inactive),1.2 µM (inactive),0.522 µM (active),1.67 µM (inactive),0.266 µM (active),1.44 µM (inactive),28.5 µM (inactive),1.45 µM (inactive),1.61 µM (inactive),3.15 µM (inactive),0.287 µM (active),0.42 µM (active),0.889 µM (active)
CC(C)(C)C(=O)N1CCN(C=O)C1=S,18.7 µM (inactive),61.4 µM (inactive),36.5 µM (inactive),26.8 µM (inactive),> 100 µM (inactive),> 100 µM (inactive),44.9 µM (inactive),92 µM (inactive),36.8 µM (inactive),80.4 µM (inactive),> 100 µM (inactive),29.8 µM (inactive),31 µM (inactive),30.1 µM (inactive),80.7 µM (inactive),47.3 µM (inactive),77.3 µM (inactive),38.2 µM (inactive),35.2 µM (inactive),> 100 µM (inactive)
O=C1c2ccccc2S(=O)(=O)c2cc(-c3nn[nH]n3)ccc21 [DOXANTRAZOLE],> 100 µM (inactive),> 100 µM (inactive),> 100 µM (inactive),> 100 µM (inactive),> 100 µM (inactive),> 100 µM (inactive),> 100 µM (inactive),> 100 µM (inactive),> 100 µM (inactive),> 100 µM (inactive),> 100 µM (inactive),> 100 µM (inactive),> 100 µM (inactive),> 100 µM (inactive),> 100 µM (inactive),> 95.3 µM (inactive),> 100 µM (inactive),> 100 µM (inactive),> 100 µM (inactive),> 100 µM (inactive)
COC(=O)c1cc(CNCCc2c[nH]c3ccccc23)on1,> 100 µM (inactive),> 100 µM (inactive),> 100 µM (inactive),29.6 µM (inactive),> 100 µM (inactive),> 33.8 µM (inactive),> 100 µM (inactive),> 100 µM (inactive),> 100 µM (inactive),> 100 µM (inactive),> 100 µM (inactive),> 100 µM (inactive),> 100 µM (inactive),> 65 µM (inactive),> 100 µM (inactive),> 100 µM (inactive),> 100 µM (inactive),> 100 µM (inactive),> 100 µM (inactive),> 91.8 µM (inactive)
